Results on 30 compounds are retold here after patent publication US6525059B1, “Substituted pyrazoles as p38 kinase inhibitors” (G. D. Searle & Company, priority 1998, dated 2003).

In data set [1] the target is T1, human GST-p38 kinase alpha (Homo sapiens, UniProt Q16539).
T1 construct: The coding region of the human p38a cDNA was obtained by PCR-amplification from RNA isolated from the human monocyte cell line THP.1; made in house; host or cells: E. coli DH10B
Put plainly: p38 kinase in vitro assay, second format, phosphorylation of EGFRP with 33P-ATP. In kind it is biochemical. Conditions: Table 10, 10% DMSO; @ 1.0 hour; read-out: p38α Kinase Assay IC50. A digest of the protocol:
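Activated human GST-p38α (pre-activated with GST-MKK6, 1 h, 30 °C) phosphorylates EGFR 21-mer peptide (200 μM) with 50 μM ATP plus γ-33P-ATP, pH 7.5, 60 min at room temperature. Unreacted ATP removed by AG 1×8 resin; supernatant scintillation-counted.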

The subject of data set [2] is TNF-α. Put plainly: Rat assay: LPS-challenged rats, serum TNF-α by ELISA. Particulars: Rattus norvegicus, po; for inhibition in vivo at 5 mg/kg: Table 10, dose 5.0 mg/kg; for inhibition in vivo at 20 mg/kg: Table 10, dose 20.0 mg/kg. In kind it is in vivo. (In general: An ELISA detects its analyte on a solid surface through an enzyme-linked reagent.)
Another data set has as its target T2, human p38 kinase alpha (Homo sapiens, UniProt Q16539).
T2 construct: The coding region of the human p38a cDNA was obtained by PCR-amplification from RNA isolated from the human monocyte cell line THP.1; GST (N); made in house; host or cells: E. coli DH10B
Put plainly: p38 kinase in vitro assay, phosphorylation of biotinylated PHAS-I with gamma 32P-ATP. In kind it is biochemical. Particulars: activated human p38 kinase alpha, PHAS-I substrate, 50 μM unlabeled ATP; read-out: p38 kinase IC50. A digest of the protocol: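 MKK6-activated human p38α phosphorylates biotinylated PHAS-I with γ-32P-ATP in 25 mM HEPES pH 7.5, 10 mM Mg acetate, 50 μM unlabeled ATP, 1% DMSO, 30 °C for 1 h or overnight. Compounds at 100–0.001 μM (10-fold steps, triplicate); substrate captured on streptavidin filter plates and counted by scintillation.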

Data set [3] concerns TNF-α. Put plainly: LPS stimulation of TNF production by U937 cells. In kind it is cell-based, human. Particulars: Homo sapiens, U-937, LPS-stimulated U937 cells; read-out: U937 Cell Assay IC50. A digest of the protocol:
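PMA-differentiated human U937 cells (20 ng/ml PMA, 24 h, then 24-48 h rest) at 2 million cells/ml, 0.1% DMSO final, stimulated with E. coli LPS (100 ng/ml final) for 4 h at 37° C. TNF-α in medium measured by ELISA; IC50 in μM.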

The mark [4] stands for this setting: read-out: Rat LPS Assay % Inhibition.

T1 sequence (Q16539 whole entry): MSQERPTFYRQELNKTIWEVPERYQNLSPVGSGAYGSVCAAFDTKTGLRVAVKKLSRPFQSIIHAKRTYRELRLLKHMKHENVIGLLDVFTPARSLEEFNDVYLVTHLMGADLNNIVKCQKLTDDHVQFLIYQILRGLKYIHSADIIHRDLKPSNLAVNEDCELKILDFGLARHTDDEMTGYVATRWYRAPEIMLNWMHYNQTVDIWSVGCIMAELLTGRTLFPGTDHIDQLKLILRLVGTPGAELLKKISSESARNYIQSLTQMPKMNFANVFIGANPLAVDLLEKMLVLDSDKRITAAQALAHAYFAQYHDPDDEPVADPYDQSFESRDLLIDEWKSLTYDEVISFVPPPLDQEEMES
T2 sequence (Q16539 whole entry): as above

Usually IC50 stands for the concentration that gives 50% inhibition. As a reminder, the melting point is the temperature of the solid-liquid transition. In turn, `CN(C)c1ccc(C(=O)C(=C2SCS2)c2ccncc2)cc1` [Example A-402] yielded a melting point of 197.3 to 202.2 °C. Further, in data set [1], the IC50 amounted to 28.9 µM.

In the case of `Sc1[nH]nc(-c2ccc(Cl)cc2)c1-c1ccncc1` [Example A-453], the melting point was in the range of 266.3 to 268.9 °C. The IC50 in data set [1] amounted to 10.2 µM.

`COC(=O)CNc1[nH]nc(-c2ccc(Cl)cc2)c1-c1ccncc1` [Example A-429] had a melting point of 195.4 to 196.8 °C. Also, in data set [1], the IC50 stood at 56.3 µM.

Compound `Fc1ccc(-c2n[nH]c(S)c2-c2ccncc2)cc1` [Example A-454] registered a melting point of 261.3 to 263.9 °C. Moreover, in data set [1], the IC50 is 8.41 µM.

`C=Cc1ccc(-c2[nH]nc(N3CCN(C)CC3)c2-c2ccncc2)cc1` [Example A-418, 1-[5-(4-ethenylphenyl)-4-(4-pyridinyl)-1H-pyrazol-3-yl]-4-methylpiperazine] had a melting point above 300 °C. For the same compound, the concentration for half-maximal inhibition (IC50) in data set [1] stood at 0.12 µM.

`COc1ccc(C(=O)C(=C2SCS2)c2ccncc2)cc1` [Example A-399] displayed a melting point of 203 to 204.1 °C. Also, the IC50 in data set [1] was determined as 22.9 µM.

Compound `CN1CCC(Sc2[nH]nc(-c3ccc(Cl)cc3)c2-c2ccncc2)CC1` [Example A-468, 3-(4-chlorophenyl)-5-[(1-methylpiperidin-4-yl)-thio]-4-pyridin-4-yl-1H-pyrazole] came in with a melting point of 227.7 °C. In data set [1], the IC50 stood at 0.3 µM. In addition, the inhibition in vivo at 1 mg/kg with TNF-α [2] (Table 10, dose 1.0 mg/kg, read-out: Rat LPS Assay % Inhibition) stood at 46%. For the same compound, the inhibition in vivo at 5 mg/kg with TNF-α [2] (setting [4]) was 50%. In the data set with TNF-α [2], the inhibition in vivo at 20 mg/kg was determined as 94%.

Compound `COc1ccc(CSC(SCc2ccc(OC)cc2)=C(C(=O)c2ccc(F)cc2)c2ccncc2)cc1` [Example A-450] displayed a melting point of 118.5 to 120.6 °C. In data set [1], the IC50 was above 100 µM.

`COc1ccc(C[S+]([O-])c2[nH]nc(-c3ccc(F)cc3)c2-c2ccncc2)cc1` (stereo not drawn) [Example A-466] came in with a melting point of 189.5 °C. For the same compound, in data set [1], the IC50 stood at 20.1 µM.

`CCc1ccc(-c2[nH]nc(N3CCN(C)CC3)c2-c2ccncc2)cc1` [Example A-419, 1-[5-(4-ethylphenyl)-4-(4-pyridinyl)-1H-pyrazol-3-yl]-4-methylpiperazine] showed a melting point of 221.6 to 222.6 °C. Besides, in data set [1], the IC50 stood at 1.31 µM. In the data set with TNF-α [2] (setting [4]), the inhibition in vivo at 5 mg/kg stood at 24%. In the data set on TNF-α [2] (Table 10, dose 10.0 mg/kg), this compound showed an inhibition in vivo at 10 mg/kg of 58%.

Consider `Cc1cccc(-c2n[nH]c(N3CCN(C)CC3)c2-c2ccncc2)c1` [A-389, Step 4], for which the melting point fell in the range of 261.9 to 262 °C. Besides, the IC50 in data set [1] came to 0.16 µM. The inhibition in vivo at 5 mg/kg in the data set on TNF-α [2] (setting [4]) turned out to be 55%. Also, the inhibition in vivo at 20 mg/kg in the data set on TNF-α [2] worked out at 94%.

The compound `Fc1ccc(-c2n[nH]c(-c3ccncc3)c2-c2ccncc2)cc1` [Example A-23, 4-[3-(4-fluorophenyl)-4-(4-pyridinyl)-1H-pyrazol-5-yl]pyridine] came in with a melting point of 304 °C. The IC50 at human p38 kinase alpha came out at 1.5 µM.

The compound `Clc1ccc(-c2n[nH]c(SCc3nc4ccccc4[nH]3)c2-c2ccncc2)cc1` [Example A-470] registered a melting point of 257.7 °C. Further, the IC50 in data set [1] was found to be 10.4 µM.

Turning to `Cc1ccc(C(=O)C(=C2SCS2)c2ccncc2)cc1C` [Example A-394], the melting point was in the range of 198.8 to 198.9 °C. In addition, the IC50 in data set [1] is 9.11 µM.

The compound `Cc1ccccc1C(=O)C(=C1SCS1)c1ccncc1` [Example A-392] showed a melting point of 126.5 to 126.6 °C. Also, the IC50 in data set [1] is 29.7 µM.

With `Cc1ccc(-c2n[nH]c(N3CCN(C)CC3)c2-c2ccncc2)cc1C` [Example A-410, 1-[5-(3,4-dimethylphenyl)-4-(4-pyridinyl)-1H-pyrazol-3-yl]-4-methylpiperazine], the melting point was 270.9 to 272.7 °C. In data set [1], the IC50 was found to be 0.21 µM. Also, the inhibition in vivo at 5 mg/kg in the data set with TNF-α [2] (setting [4]) was 11%. This compound also returned an inhibition in vivo at 20 mg/kg in the data set with TNF-α [2] of 0%.

`CC(C)(C)OC(=O)N1CCC([S+]([O-])c2[nH]nc(-c3ccc(Cl)cc3)c2-c2ccncc2)CC1` (stereo not drawn) [Example A-464] had a melting point of 215.8 to 215.9 °C. The IC50 in data set [1] was above 100 µM.

In the case of `Fc1ccc(-c2[nH]nc(-c3ccccc3)c2-c2ccncc2)cc1` [Example A-21, 4-[5-(4-fluorophenyl)-3-phenyl-1H-pyrazol-4-yl]pyridine], the melting point lay in the range of 265 to 267 °C. The IC50 in the data set on TNF-α [3] worked out at 0.077 µM.

As to `COc1ccc(C(=O)C(=C2SCS2)c2ccncc2)cc1Cl` [Example A-397], the melting point fell in the range of 191.5 to 192.5 °C. Moreover, the IC50 in data set [1] is 30 µM.

`O=C(O)CNc1[nH]nc(-c2ccc(Cl)cc2)c1-c1ccncc1.[Li+]` [Example A-430] had a melting point above 300 °C. Moreover, in data set [1], the IC50 is above 100 µM.

In the case of `CC(C)(C)OC(=O)N1CCC(S(=O)(=O)c2[nH]nc(-c3ccc(Cl)cc3)c2-c2ccncc2)CC1` [Example A-465], the melting point lay in the range of 228 to 230.8 °C. Besides, in data set [1], the IC50 is above 100 µM.

The compound `COc1ccc(CS(=O)(=O)c2[nH]nc(-c3ccc(F)cc3)c2-c2ccncc2)cc1` [Example A-467] yielded a melting point of 241.9 to 242 °C. Further, the IC50 in data set [1] was 21.4 µM.

On to `CC(C#N)Sc1[nH]nc(-c2ccc(Cl)cc2)c1-c1ccncc1` (stereo not drawn) [Example A-477], for which the melting point lay in the range of 211.1 to 212.8 °C. Also, in data set [1], the IC50 was 0.34 µM.

Regarding `Cc1cc(-c2[nH]nc(N3CCN(C)CC3)c2-c2ccncc2)ccc1Br` [Example A-420, 1-[5-(4-bromo-3-methylphenyl)-4-(4-pyrdinyl)-1H-pyrazol-3-yl]-4-methylpiperazine], the melting point is 294.7 °C (dec.). Also, in data set [1], the IC50 was determined as 0.32 µM. Moreover, the inhibition in vivo at 5 mg/kg in the data set with TNF-α [2] (setting [4]) came to 47%. Besides, the inhibition in vivo at 20 mg/kg in the data set with TNF-α [2] was found to be 91%.

In the case of `CN1CCN(c2n[nH]c(-c3ccc(C#N)cc3)c2-c2ccncc2)CC1` [Example A-412, 1-[5-(4-cyanophenyl)-4-(4-pyridinyl)-1H-pyrazol-3-yl]-4-methylpiperazine], the melting point is above 300 °C. The IC50 in data set [1] was found to be 2.15 µM. The inhibition in vivo at 5 mg/kg in the data set on TNF-α [2] (setting [4]) was found to be 0%. Moreover, in the data set with TNF-α [2], the inhibition in vivo at 20 mg/kg is 0%.

In turn, `CN1CCN(c2[nH]nc(-c3ccc(OC(F)(F)F)cc3)c2-c2ccncc2)CC1` [Example A-411, 1-[5-(4-trifluoromethoxyphenyl)-4-(4-pyridinyl)-1H-pyrazol-3-yl]-4-methylpiperazine] had a melting point of 221 to 221.2 °C. Moreover, in data set [1], the IC50 is 3.37 µM. Further, the inhibition in vivo at 5 mg/kg in the data set with TNF-α [2] (setting [4]) turned out to be 40%. Moreover, the inhibition in vivo at 20 mg/kg in the data set on TNF-α [2] turned out to be 0%.

As to `Fc1ccc(-c2[nH]nc(Nc3ccccc3)c2-c2ccncc2)cc1` [Example A-20, 5-(4-Fluorophenyl)-N-phenyl-4-(4-pyridinyl)-1H-pyrazol-3-amine], the melting point is 218 to 219 °C. Also, the IC50 with TNF-α [3] came to 1.09 µM.

`CSc1[nH]nc(-c2ccc(F)cc2)c1-c1ccncc1` [Example A-434] displayed a melting point of 249.9 °C. The IC50 in data set [1] is 5.84 µM.

Compound `O=C(C(=C1SCS1)c1ccncc1)c1cccc(Br)c1` [Example A-393] displayed a melting point of 159.6 to 159.7 °C. In data set [1], the IC50 turned out to be 2.32 µM.

The compound `COc1ccc(COc2[nH]nc(-c3ccc(Cl)cc3)c2-c2ccncc2)cc1` [Example A-444] registered a melting point of 229.1 to 229.2 °C. Also, in data set [1], the IC50 came to 6.99 µM.
